In ChEMBL document CHEMBL1137582, “Quinazoline and benzimidazole MCH-1R antagonists” (Bioorg Med Chem Lett, 2007):
Calls of active or inactive are those of the source. The calls are words filed in the database; no cut-off is given here.

What was measured:
[1] = target: T1, Melanin-concentrating hormone receptor 1 (Homo sapiens, UniProt Q99705); assay: Displacement of 125I-[Phe13,Tyr19]-MCH from MCH-R1 expressing cell membranes
[2] = target: T1, Melanin-concentrating hormone receptor 1; assay: Inhibition of MCH-mediated calcium influx into MCH-R1 expressing cells; type: functional
[3] = target: T1, Melanin-concentrating hormone receptor 1; assay: Inhibition of 125I-[Phe13,Tyr19]-MCH binding to MCH-R1 expressing cell membranes at 1uM
[4] = target: Cytochrome P450 2C19 (Homo sapiens, UniProt P33261); assay: Inhibition of human CYP2C19 at 1uM; type: ADME
[5] = target: T2, D(2) dopamine receptor (Homo sapiens, UniProt P14416); assay: Inhibition of D2(L) at 10uM
[6] = target: T3, 5-hydroxytryptamine receptor 2C (Homo sapiens) (UniProt P28335); assay: Inhibition of 5HT2C at 10uM
T3 sequence (whole entry): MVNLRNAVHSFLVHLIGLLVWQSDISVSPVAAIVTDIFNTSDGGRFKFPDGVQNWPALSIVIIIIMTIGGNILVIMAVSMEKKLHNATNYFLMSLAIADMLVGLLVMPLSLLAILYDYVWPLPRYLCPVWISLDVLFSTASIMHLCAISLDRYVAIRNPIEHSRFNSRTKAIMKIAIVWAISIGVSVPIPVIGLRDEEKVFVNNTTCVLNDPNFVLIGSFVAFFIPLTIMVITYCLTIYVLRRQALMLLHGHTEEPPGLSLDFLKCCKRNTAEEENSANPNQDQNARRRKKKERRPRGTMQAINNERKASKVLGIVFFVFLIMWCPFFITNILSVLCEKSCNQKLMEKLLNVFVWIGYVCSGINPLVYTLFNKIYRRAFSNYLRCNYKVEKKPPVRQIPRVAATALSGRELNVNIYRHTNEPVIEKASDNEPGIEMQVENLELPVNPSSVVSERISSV

[7] = target: T4, Adrenergic receptor alpha-1 (Homo sapiens, UniProt P35348+P25100+P35368); assay: Inhibition of adrenergic alpha-1 receptor; type: protein assay
T4 sequence (P35348 whole entry): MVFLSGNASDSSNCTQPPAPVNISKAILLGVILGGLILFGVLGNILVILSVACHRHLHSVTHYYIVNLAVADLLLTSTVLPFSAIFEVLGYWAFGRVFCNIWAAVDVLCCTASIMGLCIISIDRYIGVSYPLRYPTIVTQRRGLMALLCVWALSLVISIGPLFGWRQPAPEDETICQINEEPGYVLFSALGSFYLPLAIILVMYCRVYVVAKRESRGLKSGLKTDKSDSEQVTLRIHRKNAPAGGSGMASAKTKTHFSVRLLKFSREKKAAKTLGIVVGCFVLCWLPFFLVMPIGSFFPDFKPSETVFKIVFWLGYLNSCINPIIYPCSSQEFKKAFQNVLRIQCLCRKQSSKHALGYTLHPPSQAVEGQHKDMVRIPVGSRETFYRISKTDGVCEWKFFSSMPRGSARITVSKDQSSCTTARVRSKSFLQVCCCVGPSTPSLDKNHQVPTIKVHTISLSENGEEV
T4 sequence (P25100 whole entry): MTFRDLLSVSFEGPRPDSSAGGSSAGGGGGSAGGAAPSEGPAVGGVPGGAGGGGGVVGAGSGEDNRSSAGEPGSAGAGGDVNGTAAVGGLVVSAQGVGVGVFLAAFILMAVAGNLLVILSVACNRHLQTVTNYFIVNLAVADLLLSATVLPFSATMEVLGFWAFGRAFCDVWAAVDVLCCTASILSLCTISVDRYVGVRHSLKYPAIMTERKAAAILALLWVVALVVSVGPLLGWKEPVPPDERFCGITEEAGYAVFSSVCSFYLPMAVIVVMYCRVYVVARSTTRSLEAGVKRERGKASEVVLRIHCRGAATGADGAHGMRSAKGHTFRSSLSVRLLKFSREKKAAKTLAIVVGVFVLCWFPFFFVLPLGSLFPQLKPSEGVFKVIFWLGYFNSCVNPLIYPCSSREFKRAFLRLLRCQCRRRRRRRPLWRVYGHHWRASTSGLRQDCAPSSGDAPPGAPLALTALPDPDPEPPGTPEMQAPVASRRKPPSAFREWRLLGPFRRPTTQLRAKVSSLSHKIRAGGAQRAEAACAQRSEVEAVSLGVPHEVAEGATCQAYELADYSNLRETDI
T4 sequence (P35368 whole entry): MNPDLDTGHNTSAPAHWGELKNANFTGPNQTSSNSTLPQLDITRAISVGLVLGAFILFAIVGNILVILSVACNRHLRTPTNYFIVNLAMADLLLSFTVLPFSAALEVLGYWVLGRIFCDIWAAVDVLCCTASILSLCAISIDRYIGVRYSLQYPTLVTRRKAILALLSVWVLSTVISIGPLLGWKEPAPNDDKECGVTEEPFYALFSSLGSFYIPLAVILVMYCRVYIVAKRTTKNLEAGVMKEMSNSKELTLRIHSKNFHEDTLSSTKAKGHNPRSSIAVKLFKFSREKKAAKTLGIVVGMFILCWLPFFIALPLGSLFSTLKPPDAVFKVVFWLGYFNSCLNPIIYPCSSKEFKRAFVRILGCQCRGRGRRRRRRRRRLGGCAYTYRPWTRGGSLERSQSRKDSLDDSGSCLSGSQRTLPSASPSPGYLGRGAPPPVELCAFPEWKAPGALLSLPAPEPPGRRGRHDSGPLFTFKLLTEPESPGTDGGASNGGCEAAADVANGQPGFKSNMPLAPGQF

[8] = target: T5, Cytochrome P450 1A2 (Homo sapiens, UniProt P05177); assay: Inhibition of human CYP1A2 at 1uM; type: ADME
T5 sequence (P05177 whole entry): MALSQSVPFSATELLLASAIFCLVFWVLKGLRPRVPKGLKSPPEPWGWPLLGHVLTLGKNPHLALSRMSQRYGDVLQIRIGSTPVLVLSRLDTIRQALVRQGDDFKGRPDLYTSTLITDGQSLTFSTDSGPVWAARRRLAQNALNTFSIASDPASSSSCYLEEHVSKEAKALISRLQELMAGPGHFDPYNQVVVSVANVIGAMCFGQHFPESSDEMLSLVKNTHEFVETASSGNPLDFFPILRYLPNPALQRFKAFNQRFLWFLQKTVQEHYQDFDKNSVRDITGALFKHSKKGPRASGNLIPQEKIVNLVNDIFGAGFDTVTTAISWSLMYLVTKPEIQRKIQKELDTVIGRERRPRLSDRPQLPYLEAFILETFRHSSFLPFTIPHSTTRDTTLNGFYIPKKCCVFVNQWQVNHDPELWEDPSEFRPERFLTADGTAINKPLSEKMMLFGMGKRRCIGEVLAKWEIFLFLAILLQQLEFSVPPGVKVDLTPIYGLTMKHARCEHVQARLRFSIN

[9] = target: T6, Melanin-concentrating hormone receptor 2 (Homo sapiens, UniProt Q969V1); assay: Inhibition of MCH-R2
[10] = target: 5-hydroxytryptamine receptor 2B (Homo sapiens, UniProt P41595); assay: Inhibition of 5HT2B
[11] = target: Cytochrome P450 3A4 (Homo sapiens, UniProt P08684); assay: Inhibition of human CYP3A4 at 1uM; type: ADME
[12] = Solubility at pH7.4; type: physicochemical; conditions: buffer, pH 7.4
[13] = target: 5-hydroxytryptamine receptor 2A (Homo sapiens) (UniProt P28223); assay: Inhibition of 5HT2A at 10uM
[14] = target: Cytochrome P450 2C9 (Homo sapiens, UniProt P11712); assay: Inhibition of human CYP2C9 at 1uM; type: ADME
[15] = target: Cytochrome P450 2D6 (Homo sapiens, UniProt P10635); assay: Inhibition of human CYP2D6 at 1uM; type: ADME
[16] = target: T2, D(2) dopamine receptor; assay: Inhibition of D2(L)
[17] = target: Adrenergic receptor alpha-1 (Homo sapiens) (UniProt P35348+P25100+P35368); assay: Inhibition of adrenergic alpha-1 receptor at 10uM; type: protein assay
[18] = target: Voltage-gated inwardly rectifying potassium channel KCNH2 (Homo sapiens, UniProt Q12809); assay: Inhibition of hERG in patch-clamp assay; type: toxicity
[19] = target: T6, Melanin-concentrating hormone receptor 2; assay: Inhibition of MCH-R2 at 10uM

T1 sequence (Q99705 whole entry): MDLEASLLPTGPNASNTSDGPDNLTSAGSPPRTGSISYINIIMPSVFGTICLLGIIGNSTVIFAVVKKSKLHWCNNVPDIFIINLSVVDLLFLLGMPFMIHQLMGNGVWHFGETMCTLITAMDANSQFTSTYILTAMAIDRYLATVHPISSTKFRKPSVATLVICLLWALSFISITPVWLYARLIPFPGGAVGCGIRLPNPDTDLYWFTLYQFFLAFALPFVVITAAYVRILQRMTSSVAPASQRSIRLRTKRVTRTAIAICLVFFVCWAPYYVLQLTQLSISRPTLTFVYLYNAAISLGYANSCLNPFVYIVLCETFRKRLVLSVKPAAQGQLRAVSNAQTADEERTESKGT
Cytochrome P450 2C9, sequence (P11712 whole entry): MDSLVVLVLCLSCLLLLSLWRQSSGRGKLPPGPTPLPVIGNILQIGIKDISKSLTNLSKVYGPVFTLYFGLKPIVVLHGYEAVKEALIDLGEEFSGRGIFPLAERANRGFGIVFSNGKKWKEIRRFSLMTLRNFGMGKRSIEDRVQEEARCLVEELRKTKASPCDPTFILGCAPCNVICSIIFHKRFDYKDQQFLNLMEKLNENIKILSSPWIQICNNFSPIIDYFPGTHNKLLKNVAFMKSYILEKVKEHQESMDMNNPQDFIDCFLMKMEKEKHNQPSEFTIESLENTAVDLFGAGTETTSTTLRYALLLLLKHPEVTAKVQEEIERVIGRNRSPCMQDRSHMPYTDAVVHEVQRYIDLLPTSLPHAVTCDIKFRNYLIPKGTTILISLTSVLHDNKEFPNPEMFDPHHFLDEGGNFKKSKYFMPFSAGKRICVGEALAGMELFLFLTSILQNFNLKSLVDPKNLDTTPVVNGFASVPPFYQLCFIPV
T6 sequence (Q969V1 whole entry): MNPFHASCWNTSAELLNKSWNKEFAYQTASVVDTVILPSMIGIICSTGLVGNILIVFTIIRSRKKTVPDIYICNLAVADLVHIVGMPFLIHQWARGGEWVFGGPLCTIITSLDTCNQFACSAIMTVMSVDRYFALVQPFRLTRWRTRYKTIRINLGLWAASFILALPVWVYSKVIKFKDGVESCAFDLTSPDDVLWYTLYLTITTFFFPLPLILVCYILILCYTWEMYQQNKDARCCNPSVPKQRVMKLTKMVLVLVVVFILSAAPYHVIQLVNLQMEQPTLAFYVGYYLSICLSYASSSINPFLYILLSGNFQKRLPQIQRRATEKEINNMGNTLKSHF
T2 sequence (P14416 whole entry): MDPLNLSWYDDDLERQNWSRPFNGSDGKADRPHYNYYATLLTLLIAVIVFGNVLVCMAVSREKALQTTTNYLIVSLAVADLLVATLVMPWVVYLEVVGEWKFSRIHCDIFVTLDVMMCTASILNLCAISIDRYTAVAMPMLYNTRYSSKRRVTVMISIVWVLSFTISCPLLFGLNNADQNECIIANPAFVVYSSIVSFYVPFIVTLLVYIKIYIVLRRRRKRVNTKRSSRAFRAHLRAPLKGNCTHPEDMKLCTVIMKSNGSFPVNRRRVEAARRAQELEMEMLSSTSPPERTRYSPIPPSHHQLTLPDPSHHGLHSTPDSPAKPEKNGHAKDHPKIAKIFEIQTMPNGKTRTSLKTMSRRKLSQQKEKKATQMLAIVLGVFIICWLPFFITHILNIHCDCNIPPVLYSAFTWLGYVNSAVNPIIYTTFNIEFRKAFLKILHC
5-hydroxytryptamine receptor 2B, sequence (P41595 whole entry): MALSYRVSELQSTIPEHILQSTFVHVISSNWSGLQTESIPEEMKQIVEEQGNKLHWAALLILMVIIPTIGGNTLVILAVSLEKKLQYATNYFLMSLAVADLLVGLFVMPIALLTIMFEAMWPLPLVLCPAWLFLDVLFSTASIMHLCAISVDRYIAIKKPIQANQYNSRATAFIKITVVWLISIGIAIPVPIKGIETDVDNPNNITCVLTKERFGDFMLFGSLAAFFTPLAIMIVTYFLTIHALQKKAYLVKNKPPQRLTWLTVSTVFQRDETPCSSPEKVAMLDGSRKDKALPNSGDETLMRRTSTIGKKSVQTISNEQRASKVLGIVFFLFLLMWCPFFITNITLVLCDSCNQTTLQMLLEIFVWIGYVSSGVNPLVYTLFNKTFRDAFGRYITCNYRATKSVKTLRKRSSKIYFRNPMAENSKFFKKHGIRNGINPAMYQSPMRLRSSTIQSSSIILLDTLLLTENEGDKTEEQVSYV
5-hydroxytryptamine receptor 2A (Homo sapiens), sequence (P28223 whole entry): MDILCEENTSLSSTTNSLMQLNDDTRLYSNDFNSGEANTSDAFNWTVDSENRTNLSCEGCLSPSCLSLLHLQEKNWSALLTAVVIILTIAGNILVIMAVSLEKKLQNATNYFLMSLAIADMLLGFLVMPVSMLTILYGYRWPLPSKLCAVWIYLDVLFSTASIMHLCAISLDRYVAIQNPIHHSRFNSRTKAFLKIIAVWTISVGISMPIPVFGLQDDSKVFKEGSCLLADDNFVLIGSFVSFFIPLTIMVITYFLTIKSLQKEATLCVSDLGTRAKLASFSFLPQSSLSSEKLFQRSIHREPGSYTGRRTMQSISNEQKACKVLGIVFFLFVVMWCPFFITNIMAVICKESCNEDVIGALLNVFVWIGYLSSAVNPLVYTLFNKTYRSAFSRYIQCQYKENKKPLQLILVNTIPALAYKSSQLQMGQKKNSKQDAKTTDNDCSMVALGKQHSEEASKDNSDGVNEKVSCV
Cytochrome P450 3A4, sequence (P08684 whole entry): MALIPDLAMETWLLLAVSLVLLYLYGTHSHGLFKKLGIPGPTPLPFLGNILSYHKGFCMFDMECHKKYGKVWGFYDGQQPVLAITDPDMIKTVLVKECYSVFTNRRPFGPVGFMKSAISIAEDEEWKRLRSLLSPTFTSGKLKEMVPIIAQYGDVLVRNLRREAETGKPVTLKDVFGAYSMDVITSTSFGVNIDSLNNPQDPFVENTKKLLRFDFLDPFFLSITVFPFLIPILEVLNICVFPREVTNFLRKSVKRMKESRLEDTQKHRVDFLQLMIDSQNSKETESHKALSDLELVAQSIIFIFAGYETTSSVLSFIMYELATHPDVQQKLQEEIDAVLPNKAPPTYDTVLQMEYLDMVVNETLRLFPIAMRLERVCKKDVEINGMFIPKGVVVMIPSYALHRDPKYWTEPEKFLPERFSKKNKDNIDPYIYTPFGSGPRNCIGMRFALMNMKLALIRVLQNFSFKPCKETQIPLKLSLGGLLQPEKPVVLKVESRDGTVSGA
Cytochrome P450 2C19, sequence (P33261 whole entry): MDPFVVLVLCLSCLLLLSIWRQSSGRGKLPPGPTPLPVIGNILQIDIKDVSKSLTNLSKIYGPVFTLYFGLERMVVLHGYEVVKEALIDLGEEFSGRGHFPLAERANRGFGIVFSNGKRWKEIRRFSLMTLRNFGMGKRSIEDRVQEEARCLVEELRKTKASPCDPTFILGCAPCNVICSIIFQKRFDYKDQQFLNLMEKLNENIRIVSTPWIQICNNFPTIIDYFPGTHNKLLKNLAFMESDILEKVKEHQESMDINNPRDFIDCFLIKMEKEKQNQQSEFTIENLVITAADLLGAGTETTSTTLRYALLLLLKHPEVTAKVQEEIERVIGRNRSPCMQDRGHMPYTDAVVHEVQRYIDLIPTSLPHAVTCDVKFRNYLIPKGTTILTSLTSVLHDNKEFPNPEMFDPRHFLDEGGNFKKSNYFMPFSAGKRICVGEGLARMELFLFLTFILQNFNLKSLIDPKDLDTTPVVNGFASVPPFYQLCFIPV
Cytochrome P450 2D6, sequence (P10635 whole entry): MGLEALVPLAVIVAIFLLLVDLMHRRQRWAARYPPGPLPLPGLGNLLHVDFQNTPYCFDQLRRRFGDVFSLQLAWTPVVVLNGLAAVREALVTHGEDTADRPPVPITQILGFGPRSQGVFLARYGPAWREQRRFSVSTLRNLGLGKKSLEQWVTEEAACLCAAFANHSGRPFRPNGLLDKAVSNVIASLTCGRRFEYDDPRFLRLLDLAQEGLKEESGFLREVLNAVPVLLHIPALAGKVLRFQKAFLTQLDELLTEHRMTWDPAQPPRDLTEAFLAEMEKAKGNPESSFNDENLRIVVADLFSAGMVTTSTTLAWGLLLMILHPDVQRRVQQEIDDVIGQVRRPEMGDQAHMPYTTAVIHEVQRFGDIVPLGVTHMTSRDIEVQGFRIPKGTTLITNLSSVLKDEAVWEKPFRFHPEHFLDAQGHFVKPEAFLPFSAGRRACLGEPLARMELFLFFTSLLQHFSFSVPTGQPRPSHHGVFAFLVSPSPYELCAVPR

O=C(COc1ccc(Cl)cc1)Nc1ccc2nc(N3CCOCC3)ccc2c1
IC50 [1]: 961 nM

O=C(COc1ccc(C(F)(F)F)cc1)Nc1ccc2nc(N3CCOCC3)ccc2c1
IC50 [1]: 172 nM

Cc1nc(N2CCCC2)nc2ccc(NC(=O)COc3ccc(C(F)(F)F)cc3)cc12
IC50 [2]: 100 nM
IC50 [1]: 165 nM

Cc1nc(N2CCCC2)nc2ccc(NC(=O)COc3cccc(Cl)c3)cc12
Inhibition [3]: 7%

Cc1nc(N2CCCC2)nc2ccc(NC(=O)COc3ccccc3Cl)cc12
IC50 [1]: 1930 nM

O=C(COc1ccc(C(F)(F)F)cc1)Nc1ccc2nc(N3CCCC3)[nH]c2c1
IC50 [2]: 9 nM
IC50 [1]: 35 nM

CN(C)CCN(C)c1nc2ccc(NC(=O)COc3ccc(C(F)(F)F)cc3)cc2n1C
Inhibition [4]: Not Active
IC50 [2]: 28 nM
inhibition [5]: 19%
IC50 [1]: 25 nM
inhibition [6]: 7%
IC50 [7]: 27000 nM
Inhibition [8]: Not Active
IC50 [9]: > 30000 nM
IC50 [10]: 1500 nM
Inhibition [11]: Not Active
solubility [12]: > 1000 µg/mL
inhibition [13]: 22%
Inhibition [14]: Not Active
Inhibition [15]: Not Active

O=C(COc1ccc(C(F)(F)F)cc1)Nc1ccc2nc(N3CCOCC3)cnc2c1
inhibition [3]: inactive

Cc1nc(N2CCCC2)nc2ccc(NC(=O)COc3ccc(Cl)cc3)cc12
Inhibition [4]: Not Active
IC50 [16]: > 100000 nM
IC50 [2]: 58 nM
IC50 [1]: 250 nM
inhibition [6]: 39%
Inhibition [8]: Not Active
inhibition [17]: 28%
IC50 [18]: 10000 nM
IC50 [10]: 1900 nM
inhibition [19]: 2%
Inhibition [11]: Not Active
inhibition [13]: 0%
Inhibition [14]: Not Active
Inhibition [15]: Not Active

CC(C)Nc1nc2ccc(NC(=O)COc3ccc(C(F)(F)F)cc3)cc2n1C
IC50 [2]: 101 nM
IC50 [1]: 70 nM

COc1ccc(OCC(=O)Nc2ccc3nc(N4CCCC4)nc(C)c3c2)cc1
IC50 [2]: 41 nM
IC50 [1]: 390 nM

Cn1c(N2CCCC2)nc2ccc(NC(=O)COc3ccc(C(F)(F)F)cc3)cc21
IC50 [2]: 9 nM
IC50 [1]: 40 nM

Cc1cc(N2CCCC2)nc2ccc(NC(=O)COc3ccc(C(F)(F)F)cc3)cc12
IC50 [1]: 15 nM

Cc1nc(N(C)CCN(C)C)nc2ccc(NC(=O)COc3ccc(C(F)(F)F)cc3)cc12
IC50 [2]: 164 nM
IC50 [1]: 260 nM

O=C(COc1ccc(Cl)cc1)Nc1ccc2nc(N3CCOCC3)cnc2c1
inhibition [3]: inactive
